Results from patent EP4775571A1, “LPAR1 ANTAGONIST AND USE THEREOF” (Haisco Pharmaceutical Group Co., Ltd., priority 2023, dated 2025).
Read-outs that look alike come from different tables or passages of the source. Each block holds one compound with its values, some of them ahead of it.

Tests used:
[1] = biological target: T1, LPAR1 (Homo sapiens, UniProt Q92633); assay: Cell calcium flux assay (antagonist mode, LPA at EC80, FLIPR); assay type: cell-based
T1 construct: expressed in transfected cells; host or cells: CHO (CHO-LPA1 cells)
Protocol: • 1) The test compound was diluted to a 400X stock solution with DMSO in a 384-well plate. • 2) 1 µl of compound solution from step 1 was transferred into 39 ul of assay buffer to prepare a 10X working solution in a 384-well plate using a Bravo automated liquid handling platform. • 3) CHO-LPA1 cells were cultured in F12 medium (10% FBS). • 4) When cells reached 80% confluence, the cells were dissociated using 0.25% trypsin-EDTA. • 5) Cell density was determined and the cells were diluted to 4x10e5/ml using F12 (10% FBS). • 6) 30 µl of the cell suspension was dispensed into a 384-well plate (corning 3764#) using a multidrop automated dispenser, resulting in 12,000 cells per well. The plate was incubated at 37°C with 5% CO2 for 18-20 hours. • 7) The medium was replaced with 25 uL of serum-free medium and incubated overnight. • 8) 10 ul of 3.5X loading dye was added to each well of the cell plate. The plate was incubated in the dark at 37°C with 5% CO2 for 0.5-1 hours. • 9) After incubation, 5 µl of the 10X working solution from step 2 was transferred to the cell plate. • 10) The cell plate was incubated in the dark at 25°C for 15 minutes, and then the calcium signals were read. • 11) A 5X agonist (LPA) working solution in 1X HBSS+20 mM HEPES+0.1% BSA was prepared in a 384-well assay plate (greiner 784075#), with at least 20 µl per well. The agonist concentration used in this assay was determined based on the dose-response curve from a prior agonist mode experiment, with the EC80 value serving as the final agonist concentration. • 12) Data were read and saved using FLIPR at room temperature with the specified settings. • 13) The signal values were plotted against compound concentrations, and the curve fitting was performed and the IC50 values were calculated using nonlinear regression analysis in GraphPad Prism software.
IC50 values are represented by grades A, B, C, and D, where A represents 0 < IC50 ≤ 10 nM, B represents 10 nM < IC50 ≤ 50 nM, C represents 50 nM < IC50 ≤ 100 nM, and D represents IC50 > 100 nM. Table 1 Antagonistic activity of the compounds of the present invention against LPAR1

[2] = Pharmacokinetic test in mice; assay type: in vivo, C57 mice; settings: for pharmacokinetic characteristics in mice: conclusion in words; for Vd: read-out: Vdss
Protocol: 2.1 Experimental animals: Male C57 mice, 20-25 g, 6 mice/compound, purchased from Chengdu Ddossy Experimental Animals Co., Ltd.
2.2 Experimental design: On the day of the experiment, the C57 mice were randomly grouped according to their body weights. The animals were fasted with water available for 12-14 h one day before the administration, and were fed 4 h after the administration. Table 2. Administration information
Before and after administration, 0.06 mL of blood was taken from the orbit under isoflurane anaesthesia and placed in an EDTAK2 centrifuge tube. The tube was centrifuged at 5000 rpm at 4°C for 10 min, and plasma was collected. The blood collection time points for the intravenous administration group and oral gavage administration group were: 0 min, 5 min, 15 min, 30 min, 1 h, 2 h, 4 h, 6 h, 8 h, and 24 h. Before analysis and detection, all samples were stored at -80°C, and the samples were quantitatively analysed by LC-MS/MS. Table 3. Pharmacokinetic parameters of test compounds in plasma of mice

[3] = CHO-LPA1 cells, calcium flux, grades, read-out: LPAR1 IC50
[4] = antagonistic activity against the LPAR1 receptor, read-out: IC50 values
[5] = mouse, iv, mice, i.v. (1 mg/kg), plasma
[6] = mouse, po, mice, i.g. (3 mg/kg), plasma

T1 sequence (Q92633 whole entry): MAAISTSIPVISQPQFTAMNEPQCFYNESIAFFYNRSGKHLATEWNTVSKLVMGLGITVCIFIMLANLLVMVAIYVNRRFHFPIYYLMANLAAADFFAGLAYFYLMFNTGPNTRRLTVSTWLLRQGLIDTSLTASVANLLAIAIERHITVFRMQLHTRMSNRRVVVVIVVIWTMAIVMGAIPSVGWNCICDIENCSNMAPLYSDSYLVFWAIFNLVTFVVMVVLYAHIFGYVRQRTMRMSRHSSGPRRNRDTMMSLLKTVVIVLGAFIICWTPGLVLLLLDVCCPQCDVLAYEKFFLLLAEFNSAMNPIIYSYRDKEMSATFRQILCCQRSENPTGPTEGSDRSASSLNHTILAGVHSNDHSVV

Structure (SMILES): C=C1C[C@H](Oc2ccc(-c3nnn(C)c3COC(=O)N(C)CCC)nc2C)C[C@@H](C(=O)O)C1 [Compound 24]
IC50 [1, 3]: < 10 nM

Structure (SMILES): C=C1CC(N(C)C(=O)OCc2c(-c3ccc(O[C@H]4CCC[C@H](C(=O)O)C4)c(C)n3)nnn2C)C1 [Compound 4]
IC50 [1, 3]: < 10 nM | IC50 [1, 4]: 2 nM | pharmacokinetic characteristics in mice [2]: excellent pharmacokinetic characteristics | C0 or Cmax ([2]; mice, i.g. (3 mg/kg), plasma): 687 ± 331 ng/mL | C0 or Cmax ([2]; mice, i.v. (1 mg/kg), plasma): 1066 ± 134 ng/mL | AUC(0-t) [2, 5]: 510 ± 95 ng·h/mL | clearance [2, 5]: 33.2 ± 5.6 mL/min/kg | Vd [2, 5]: 5.11 ± 1 L/kg | bioavailability ([2]; mouse, plasma, po, mice, i.g. (3 mg/kg)): ≥ 98% | AUC(0-t) [2, 6]: 2180 ± 672 ng·h/mL

Structure (SMILES): C=C1CC(N(C)C(=O)OCc2c(-c3ccc(N[C@H]4CCC[C@H](C(=O)O)C4)c(C)n3)nnn2C)C1 [Compound 21]
IC50 [1, 3]: < 10 nM

Structure (SMILES): Cc1nc(-c2nnn(C)c2COC(=O)N(C)OC2CCC2)ccc1O[C@H]1CCC[C@H](C(=O)O)C1 [Compound 15]
IC50 [1, 3]: 10 to 50 nM

Structure (SMILES): Cc1nc(-c2nnn(C)c2COC(=O)N(C)CCOC(F)F)ccc1O[C@H]1CCC[C@H](C(=O)O)C1 [Compound 27]
IC50 [1, 3]: < 10 nM

Structure (SMILES): Cc1nc(-c2nnn(C)c2COC(=O)N(C)C2CC(=C(F)F)C2)ccc1O[C@H]1CCC[C@H](C(=O)O)C1 (stereo partly drawn) [Compound 12]
IC50 [1, 3]: < 10 nM | IC50 [1, 4]: 2 nM | pharmacokinetic characteristics in mice [2]: excellent pharmacokinetic characteristics | C0 or Cmax ([2]; mice, i.g. (3 mg/kg), plasma): 581 ± 18 ng/mL | C0 or Cmax ([2]; mice, i.v. (1 mg/kg), plasma): 1938 ± 258 ng/mL | AUC(0-t) [2, 5]: 962 ± 131 ng·h/mL | clearance [2, 5]: 17.5 ± 2.4 mL/min/kg | Vd [2, 5]: 2.57 ± 0.23 L/kg | AUC(0-t) [2, 6]: 1450 ± 81 ng·h/mL

Structure (SMILES): C=C1CC(N(C)C(=O)OCc2c(-c3ccc(OCC4C(C(=O)O)C4(F)F)c(C)n3)nnn2C)C1 (single isomer, unassigned) [Compound 32-1]
IC50 [1, 3]: < 10 nM

Structure (SMILES): C=C1CC(N(C)C(=O)OCc2c(-c3ccc(OCC4C(C(=O)O)C4(F)F)c(C)n3)nnn2C)C1 (single isomer, unassigned) [Compound 32-4]
IC50 [1, 3]: < 10 nM

Now from value to compound:

IC50 [1, 3]: 10 to 50 nM
Structure (SMILES): Cc1nc(-c2nnn(C)c2CNC(=O)OC2CC(=C(F)F)C2)ccc1OC1CCCCC(C(=O)O)C1 (single isomer, unassigned) [Compound 48-2]

IC50 [1, 3]: < 10 nM
Structure (SMILES): C=C1CC(COC(=O)NCc2c(-c3ccc(O[C@H]4CCC[C@H](C(=O)O)C4)c(C)n3)nnn2C)C1 [Compound 11]

IC50 [1, 3]: < 10 nM
Structure (SMILES): Cc1nc(-c2nnn(C)c2CNC(=O)O[C@H]2C[C@H](OC(F)(F)F)C2)ccc1O[C@H]1CCC[C@H](C(=O)O)C1 [Compound 42]

IC50 [1, 3]: < 10 nM
Structure (SMILES): Cc1nc(-c2nnn(C)c2CNC(=O)O[C@H]2C[C@@H](OC(F)(F)F)C2)ccc1O[C@H]1CCC[C@H](C(=O)O)C1 [Compound 41]

IC50 [1, 3]: < 10 nM
Structure (SMILES): Cc1nc(-c2nnn(C)c2COC(=O)N(C)[C@H]2C[C@H](OC(F)(F)F)C2)ccc1O[C@H]1CCC[C@H](C(=O)O)C1 [Compound 31]

IC50 [1, 3]: < 10 nM
Structure (SMILES): C=C1CC(N(C)C(=O)OCc2c(-c3ccc(OCC4(CC(=O)O)CC4)c(C)n3)nnn2C)C1 [Compound 36]

IC50 [1, 3]: < 10 nM
Structure (SMILES): CCCN(C)C(=O)OCc1c(-c2ccc(O[C@H]3CC(=C(F)F)C[C@H](C(=O)O)C3)c(C)n2)nnn1C [Compound 38]

IC50 [1, 3]: < 10 nM
Structure (SMILES): CC(C)=C1CC(N(C)C(=O)OCc2c(-c3ccc(O[C@H]4CCC[C@H](C(=O)O)C4)c(C)n3)nnn2C)C1 (stereo partly drawn) [Compound 18]
